Results taken from PMC9743092, “Membrane-Active Cyclic Amphiphilic Peptides: Broad-Spectrum Antibacterial Activity Alone and in Combination with Antibiotics” (Journal of Medicinal Chemistry, 2022).
Values after ≈ are worked out from the molar mass of the structure shown. Where two headings read alike, the source gives them in different places. Bridge positions count the residues as written; N and C are the ends. Square brackets hold non-standard residues; d marks the D form. Peptide text beside a SMILES is read from it. * marks the point of attachment. X1 = CC[C@H](C)CCCCC(=O)*; Dab = NCC[C@H](N)C(=O)O

Experiments:
E. coli (1191008) = test: microbe, parasite or virus in culture; settings: Escherichia coli, read-out: MIC E. coli (1191008)
S. aureus (1193193) = test: microbe, parasite or virus in culture; settings: Staphylococcus aureus, read-out: MIC S. aureus (1193193)
E. coli (ATCC 25922) [1] = test: microbe, parasite or virus in culture; settings: Escherichia coli, ATCC25922, read-out: MIC E. coli (ATCC 25922)
P. aeruginosa (1188712) = test: microbe, parasite or virus in culture; settings: Pseudomonas aeruginosa, read-out: MIC P. aeruginosa (1188712)
[2] = tested on: P. aeruginosa (ATCC 27853); test: microbe, parasite or virus in culture; settings: Pseudomonas aeruginosa, ATCC27853, read-out: MIC P. aeruginosa (ATCC 27853)
S. aureus (ATCC 29213) = test: microbe, parasite or virus in culture; settings: Staphylococcus aureus, ATCC29213, read-out: MIC S. aureus (ATCC 29213)
[3] = tested on: K. pneumoniae (ATCC 700603); test: microbe, parasite or virus in culture; settings: Klebsiella pneumoniae, ATCC700603, read-out: MIC K. pneumoniae (ATCC 700603)
K. pneumoniae (1188718) = test: microbe, parasite or virus in culture; settings: Klebsiella pneumoniae, read-out: MIC K. pneumoniae (1188718)
E. coli (ATCC 25922) [4] = settings: antibiotic alone or physical mixture with peptide (1:1 w/w)
[5] = tested on: S. aureus (ATCC BAA-1556); test: Synergistic checkerboard assay; assay type: cell-based; settings: Staphylococcus aureus
E. coli (ATCC 25922) [6] = test: microbe, parasite or virus in culture; settings: Escherichia coli, ATCC25922, 24 h, read-out: MBC E. coli (ATCC 25922)
[7] = tested on: K. pneumoniae (ATCC BAA-1705); test: microbe, parasite or virus in culture; settings: Klebsiella pneumoniae, ATCCBAA1705, 24 h, read-out: MBC K. pneumoniae (ATCC BAA-1705)
[8] = tested on: P. aeruginosa (ATCC 27883); test: microbe, parasite or virus in culture; settings: Pseudomonas aeruginosa, ATCC27883, 24 h, read-out: MBC P. aeruginosa (ATCC 27883)
MRSA (ATCC BAA-1556) [9] = settings: antibiotic alone or physical mixture with peptide (1:1 w/w)
MRSA (ATCC BAA-1556) [10] = test: microbe, parasite or virus in culture; settings: Staphylococcus aureus, ATCCBAA1556|MRSA, 24 h, read-out: MBC MRSA (ATCC BAA-1556)
MRSA (ATCC BAA-1556) [11] = test: microbe, parasite or virus in culture; settings: Staphylococcus aureus
E. coli (ATCC 25922) [12] = test: Synergistic checkerboard assay; assay type: cell-based; settings: Escherichia coli
[13] = tested on: P. aeruginosa (ATCC 27883); test: Synergistic checkerboard assay; assay type: cell-based; settings: Pseudomonas aeruginosa
E. coli (ATCC 25922) [14] = test: microbe, parasite or virus in culture; settings: Escherichia coli, ATCC25922, read-out: MIC E. coli (ATCC 25922); remark: listed apart in the source
[15] = tested on: P. aeruginosa (ATCC 27883); test: microbe, parasite or virus in culture; settings: Pseudomonas aeruginosa, ATCC27883, read-out: MIC P. aeruginosa (ATCC 27883)
[16] = tested on: S. pneumonia (ATCC 51938); test: microbe, parasite or virus in culture; assay type: cell-based; settings: Streptococcus pneumoniae, ATCC51938; Gram-positive; penicillin-, clindamycin-, cotrimoxazole-, erythromycin-resistant
Method: (§1) Daptomycin and polymyxin B were selected as positive controls against Gram-positive and Gram-negative bacteria, respectively.
(§2) All experiments were conducted in triplicate.

E. faecium (ATCC 27270) = test: microbe, parasite or virus in culture; assay type: cell-based; settings: Enterococcus faecium, ATCC27270; Gram-positive
Method: as §1, §2

[17] = tested on: S. pneumonia (ATCC 49619); test: microbe, parasite or virus in culture; assay type: cell-based; settings: Streptococcus pneumoniae, ATCC49619; Gram-positive
Method: as §1, §2

E. faecalis (ATCC 29212) = test: microbe, parasite or virus in culture; assay type: cell-based; settings: Enterococcus faecalis, ATCC29212; Gram-positive
Method: as §1, §2

E. faecalis (ATCC 51575) = test: microbe, parasite or virus in culture; assay type: cell-based; settings: Enterococcus faecalis, ATCC51575; Gram-positive; gentamicin-, streptomycin-, vancomycin-resistant
Method: as §1, §2

[18] = tested on: Bacillus subtilis (ATCC-6633); test: microbe, parasite or virus in culture; assay type: cell-based; settings: ATCC6633, Gram-positive
Method: as §1, §2

[19] = tested on: P. aeruginosa (ATCC 27883); settings: antibiotic alone or physical mixture with peptide (1:1 w/w)
[20] = tested on: S. aureus (ATCC 29213), MRSA (ATCC BAA-1556), E. coli (ATCC 25922), E. coli (ATCC BAA-2452); test: Serial passage resistance development study; assay type: cell-based, S. aureus and E. coli; settings: 18 repeated passages
[21] = tested on: K. pneumoniae (ATCC BAA-1705); test: Synergistic checkerboard assay; settings: Klebsiella pneumoniae, ATCCBAA1705, read-out: MIC antibiotic alone
[22] = Calcein dye leakage assay; settings: 50 μg/mL, 100 min
[23] = Calcein dye leakage assay; settings: 50 μg/mL, 100 min; remark: listed apart in the source
[24] = tested on: K. pneumoniae (ATCC BAA-1705); settings: antibiotic alone or physical mixture with peptide (1:1 w/w)
[25] = tested on: normal lung (MRC-5) cells
[26] = tested on: human skin fibroblast cells (HeKa)
E. coli (ATCC BAA-2452) = test: microbe, parasite or virus in culture; assay type: cell-based; settings: Escherichia coli, ATCCBAA2452, read-out: MIC E. coli (ATCC BAA-2452)
Method: as §1, §2

[27] = tested on: P. aeruginosa (ATCC 10145); test: microbe, parasite or virus in culture; assay type: cell-based; settings: Pseudomonas aeruginosa, ATCC10145, read-out: MIC P. aeruginosa (ATCC 10145)
Method: as §1, §2

[28] = tested on: Acinetobacter baumannii (ATCCBAA-1605); test: microbe, parasite or virus in culture; assay type: cell-based; settings: ATCCBAA1605, read-out: MIC Acinetobacter baumannii (ATCCBAA-1605)
Method: as §1, §2

[29] = tested on: P. aeruginosa (ATCC BAA-1744); test: microbe, parasite or virus in culture; assay type: cell-based; settings: Pseudomonas aeruginosa, ATCCBAA1744, read-out: MIC P. aeruginosa (ATCC BAA-1744)
Method: as §1, §2

[30] = tested on: K. pneumoniae (ATCC 13883); test: microbe, parasite or virus in culture; assay type: cell-based; settings: Klebsiella pneumoniae, ATCC13883, read-out: MIC K. pneumoniae (ATCC 13883)
Method: as §1, §2

[31] = tested on: K. pneumoniae (ATCC BAA-1705); test: microbe, parasite or virus in culture; settings: Klebsiella pneumoniae, ATCCBAA1705, read-out: MIC K. pneumoniae (ATCC BAA-1705)
[32] = design: method as in PMID 25808204; settings: cited from earlier work
[33] = ATCCBAA1556, checkerboard, read-out: MIC antibiotic alone
[34] = read-out: MIC MRSA (ATCC BAA-1556)
[35] = ATCC25922, checkerboard, read-out: MIC antibiotic alone
[36] = ATCC27883, checkerboard, read-out: MIC antibiotic alone

## CO/N=C(\C(=O)N[C@@H]1C(=O)N2C(C(=O)[O-])=C(C[N+]3(C)CCCC3)CS[C@H]12)c1csc(N)n1 [cefepime]
E. coli (1191008)
  MIC: 8 µg/mL (≈ 16.6 µM)
S. aureus (1193193)
  MIC: 16 µg/mL (≈ 33.3 µM)
E. coli (ATCC 25922) [1]
  MIC: 0.06 µg/mL (≈ 0.125 µM)
P. aeruginosa (1188712)
  MIC: 8 µg/mL (≈ 16.6 µM)
[2]
  MIC: 1 µg/mL (≈ 2.08 µM)
S. aureus (ATCC 29213)
  MIC: 2 µg/mL (≈ 4.16 µM)
[3]
  MIC: 1 µg/mL (≈ 2.08 µM)
K. pneumoniae (1188718)
  MIC: 8 µg/mL (≈ 16.6 µM)

## O=C(O)c1cn(C2CC2)c2cc(N3CCNCC3)c(F)cc2c1=O [ciprofloxacin]
E. coli (ATCC 25922) [4]
  MIC E. coli (ATCC 25922): 64 µg/mL (≈ 193 µM)
[5]; [33]
  MIC: 16 µg/mL
E. coli (ATCC 25922) [6]
  MBC: 16 µg/mL (≈ 48.3 µM)
[7]
  MBC: 16 µg/mL (≈ 48.3 µM)
[8]
  MBC: 8 µg/mL (≈ 24.1 µM)
MRSA (ATCC BAA-1556) [9]
  MIC S. aureus (ATCC BAA-1556): 16 µg/mL (≈ 48.3 µM)
MRSA (ATCC BAA-1556) [10]
  MBC: 32 µg/mL (≈ 96.6 µM)

## C[C@@H](O)[C@H]1C(=O)N2C(C(=O)O)=C(S[C@@H]3CN[C@H](C(=O)N(C)C)C3)[C@H](C)[C@H]12 [meropenem]
MRSA (ATCC BAA-1556) [11]; [34]
  MIC: 2 µg/mL (≈ 5.22 µM)
MRSA (ATCC BAA-1556) [11]; read-out: MIC S. aureus (ATCC BAA-1556)
  MIC: 2 µg/mL (≈ 5.22 µM)
E. coli (ATCC 25922) [12]; [35]
  MIC: 1 µg/mL
[5]; [33]
  MIC: 2 µg/mL
E. coli (ATCC 25922) [6]
  MBC: 2 µg/mL (≈ 5.22 µM)
[7]
  MBC: 64 µg/mL (≈ 167 µM)
[13]; [36]
  MIC: 1 µg/mL
E. coli (ATCC 25922) [14]
  MIC: 1 µg/mL (≈ 2.61 µM)
[15]
  MIC: 1 µg/mL (≈ 2.61 µM)
[8]
  MBC: 4 µg/mL (≈ 10.4 µM)
MRSA (ATCC BAA-1556) [10]
  MBC: 8 µg/mL (≈ 20.9 µM)

## CCCCCCCCCC(=O)N[C@@H](Cc1c[nH]c2ccccc12)C(=O)N[C@H](CC(N)=O)C(=O)N[C@@H](CC(=O)O)C(=O)N[C@@H]1C(=O)NCC(=O)N[C@@H](CCCN)C(=O)N[C@@H](CC(=O)O)C(=O)N[C@H](C)C(=O)N[C@@H](CC(=O)O)C(=O)NCC(=O)N[C@H](CO)C(=O)N[C@@H]([C@H](C)CC(=O)O)C(=O)N[C@@H](CC(=O)c2ccccc2N)C(=O)O[C@@H]1C [daptomycin]
E. coli (ATCC 25922) [4]
  MIC E. coli (ATCC 25922): 256 µg/mL (≈ 158 µM)
[16]
  MIC: 8 µg/mL (≈ 4.94 µM)
E. faecium (ATCC 27270)
  MIC: 4 µg/mL (≈ 2.47 µM)
[17]
  MIC: 4 µg/mL (≈ 2.47 µM)
E. faecalis (ATCC 29212)
  MIC: 16 µg/mL (≈ 9.87 µM)
E. faecalis (ATCC 51575)
  MIC: 4 µg/mL (≈ 2.47 µM)
[18]
  MIC: 0.5 µg/mL (≈ 0.309 µM)
E. coli (ATCC 25922) [12]; [35]
  MIC: > 128 µg/mL
[19]
  MIC P. aeruginosa (ATCC 27883): 512 µg/mL (≈ 316 µM)
[20]
  change in MIC on resistance induction: negligible changes in the MICs
[13]; [36]
  MIC: 512 µg/mL
[21]
  MIC: 512 µg/mL
[22]
  calcein dye leakage: around 7%
[23]
  calcein dye release: 42%
MRSA (ATCC BAA-1556) [10]
  MBC: 8 µg/mL (≈ 4.94 µM)
[24]
  MIC K. pneumoniae (ATCC BAA-1705): 512 µg/mL (≈ 316 µM)

## C[S+](C)[O-] [DMSO (30%), DMSO]
[25]
  cell viability: 7–11%
[26]
  cell viability: 7–11%
Kidney (HEK-293) cells
  cell viability: 7–11%
Liver (HepaRG) cells
  cell viability: 7–11%

## CC[C@H](C)CCCCC(=O)N[C@@H](CCN)C(=O)N[C@H](C(=O)N[C@@H](CCN)C(=O)N[C@H]1CCNC(=O)[C@H]([C@@H](C)O)NC(=O)[C@H](CCN)NC(=O)[C@H](CCN)NC(=O)[C@H](CC(C)C)NC(=O)[C@@H](Cc2ccccc2)NC(=O)[C@H](CCN)NC1=O)[C@@H](C)O [polymyxin B] (X1-[Dab]T[Dab][Dab][Dab][dF]L[Dab][Dab]T; lactam 4-C)
MRSA (ATCC BAA-1556) [11]; [34]
  MIC: 64 µg/mL (≈ 53.2 µM)
E. coli (ATCC BAA-2452)
  MIC: 1 µg/mL (≈ 0.831 µM)
[27]
  MIC: 2 µg/mL (≈ 1.66 µM)
[28]
  MIC: 1 µg/mL (≈ 0.831 µM)
[29]
  MIC: 2 µg/mL (≈ 1.66 µM)
[30]
  MIC: 1 µg/mL (≈ 0.831 µM)
E. coli (ATCC 25922) [12]; ATCC25922, read-out: MIC antibiotic alone
  MIC: 2 µg/mL
[5]; ATCCBAA1556, read-out: MIC antibiotic alone
  MIC: 64 µg/mL
E. coli (ATCC 25922) [6]
  MBC: 4 µg/mL (≈ 3.32 µM)
[7]
  MBC: 2 µg/mL (≈ 1.66 µM)
[20]
  change in MIC on resistance induction: negligible changes in the MICs
[13]; ATCC27883, read-out: MIC antibiotic alone
  MIC: 1 µg/mL
[21]
  MIC: 1 µg/mL
E. coli (ATCC 25922) [14]
  MIC: 2 µg/mL (≈ 1.66 µM)
[15]
  MIC: 1 µg/mL (≈ 0.831 µM)
[31]
  MIC: 1 µg/mL (≈ 0.831 µM)
[8]
  MBC: 2 µg/mL (≈ 1.66 µM)
MRSA (ATCC BAA-1556) [9]
  MIC S. aureus (ATCC BAA-1556): 64 µg/mL (≈ 53.2 µM)

## N=C(N)NCCC[C@H](N)C(=O)O [arginine]
[32]
  pKa value of the arginine guanidinium group: 13.8 ± 0.1
